Measurements published in the supplement of paper PMC11208160.

Assay: recombinant UMI read abundance after kanamycin selection (control-corrected) (log10(CPM+1)); higher = more efficient recombination; extreme values may be limits of the assay; sequences stand for … in AGTGCAGAGAAAATCGGCCAGTTTTCTCTGCCTGCAGTCCGCATGCCGTGGGACCCCTTGGGTTCTAACCTGTTGCCTAGATTTATGCAGCGGACTGCCTTTCTCCCAAAGTGATAAACCGG…AGGTTGGTTTCACT; site = the 11-nt donor
In short: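 Counts of recombinant UMIs were reported as log10(CPM+1). Before that, they were converted to CPM, averaged over replicates and scaled using control-derived factors. They came from PCR across the donor–target junction after Escherichia coli carrying the pair library and target plasmid was plated on IPTG (0.07 mM) plus kanamycin, or unselected, in two replicates each.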
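Further: IS621 bridge recombinase in Escherichia coli cells against a fixed T5 target plasmid.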

Going from “GGGACATCATGGACCGGTTTTCCCGGTAATCCGTATTTGGA (site GGGACATCTTC)” to “GGGACGTCATGGACCGGTTTTCCCGGTAATCCGTATTTGTG (site GGGACGTCTCA)”, the “recombinant UMI read abundance (log10)” value rises from 1.52 to 2.05.

First: GGGCAATCATGGACCGGTTTTCCCGGTAATCCGTATTTGTC (site GGGCAATCTGA)
Second: GGGCAATCATGGACCGGTTTTCCCGGTAATCCGTATTTGTG (site GGGCAATCTCA)
The “recombinant UMI read abundance (log10)” value of the first is higher: 2.8 for the first, 1.92 for the second.

Going from “GGGCATGCATGGACCGGTTTTCCCGGTAATCCGTATTTGAG (site GGGCATGCTCT)” to “GGGCATGCATGGACCGGTTTTCCCGGTAATCCGTATTTGGT (site GAGCATGCTAC)”, the “recombinant UMI read abundance (log10)” value falls from 1.57 to 0.336.

Going from “GGGCATGCATGGACCGGTTTTCCCGGTAATCCGTATTTGGT (site GCGCATGCTAC)” to “GGGCATGCATGGACCGGTTTTCCCGGTAATCCGTATTTGGT (site GGGCATGCTAC)”, the “recombinant UMI read abundance (log10)” value rises from 0.0126 to 1.33.

“GGGCATGCATGGACCGGTTTTCCCGGTAATCCGTATTTGGT (site GTGCATGCTAC)” and “GGGCCAACATGGACCGGTTTTCCCGGTAATCCGTATTTGTG (site GGGCCAACTCA)” are within 0.2 log units of each other in “recombinant UMI read abundance (log10)” value: 0.161 for the first, 0 for the second.

“GGGCCACCATGGACCGGTTTTCCCGGTAATCCGTATTTGCA (site GGGACACCTTG)” and “GGGCCACCATGGACCGGTTTTCCCGGTAATCCGTATTTGCA (site GGGCCACCTTG)” are the same in “recombinant UMI read abundance (log10)” value: 0 for the first, 0 for the second.

“GGGCCACCATGGACCGGTTTTCCCGGTAATCCGTATTTGCA (site GGGGCACCTTG)” and “GGGCCACCATGGACCGGTTTTCCCGGTAATCCGTATTTGCA (site GGGTCACCTTG)” are within 0.2 log units of each other in “recombinant UMI read abundance (log10)” value: 0 for the first, 0.00812 for the second.

Compared with “GGGCCTACATGGACCGGTTTTCCCGGTAATCCGTATTTGCT (site GGGCCTACTAG)”, “GGGCCTGCATGGACCGGTTTTCCCGGTAATCCGTATTTGTG (site GGGCCTGCTCA)” is lower in “recombinant UMI read abundance (log10)” value: 1.86 for the first, 0.38 for the second.

First: GGGCGAACATGGACCGGTTTTCCCGGTAATCCGTATTTGGA (site GGGCGAACTTC)
Second: GGGCGTCCATGGACCGGTTTTCCCGGTAATCCGTATTTGCA (site GGGCGTCCTTG)
The “recombinant UMI read abundance (log10)” value of the first is lower: 0.799 for the first, 2.59 for the second.

First: GGGCGTCCATGGACCGGTTTTCCCGGTAATCCGTATTTGGT (site GGGCGTCCTAC)
Second: GGGCTTGCATGGACCGGTTTTCCCGGTAATCCGTATTTGGA (site GGGCTTGCTTC)
The “recombinant UMI read abundance (log10)” value of the first is lower: 0 for the first, 0.564 for the second.

First: GGGGAATCATGGACCGGTTTTCCCGGTAATCCGTATTTGGT (site GGGGAATCTAC)
Second: GGGGAGGCATGGACCGGTTTTCCCGGTAATCCGTATTTGTG (site GAGGAGGCTCA)
The “recombinant UMI read abundance (log10)” value of the first is higher: 0.628 for the first, 0 for the second.

Compared with “GGGGAGGCATGGACCGGTTTTCCCGGTAATCCGTATTTGTG (site GCGGAGGCTCA)”, “GGGGAGGCATGGACCGGTTTTCCCGGTAATCCGTATTTGTG (site GGGGAGGCTCA)” is higher in “recombinant UMI read abundance (log10)” value: 0.00803 for the first, 0.851 for the second.

First: GGGGAGGCATGGACCGGTTTTCCCGGTAATCCGTATTTGTG (site GTGGAGGCTCA)
Second: GGGGAGTCATGGACCGGTTTTCCCGGTAATCCGTATTTGCC (site AGGGAGTCTGG)
The “recombinant UMI read abundance (log10)” value of the first is lower: 0.134 for the first, 1.14 for the second.

Compared with “GGGGAGTCATGGACCGGTTTTCCCGGTAATCCGTATTTGCC (site CGGGAGTCTGG)”, “GGGGAGTCATGGACCGGTTTTCCCGGTAATCCGTATTTGCC (site GGGGAGTCTGG)” is higher in “recombinant UMI read abundance (log10)” value: 0 for the first, 1.78 for the second.

Going from “GGGGAGTCATGGACCGGTTTTCCCGGTAATCCGTATTTGCC (site TGGGAGTCTGG)” to “GGGGCACCATGGACCGGTTTTCCCGGTAATCCGTATTTGCG (site GGGGCACCTAG)”, the “recombinant UMI read abundance (log10)” value falls from 1.02 to 0.0129.

“GGGGCACCATGGACCGGTTTTCCCGGTAATCCGTATTTGCG (site GGGGCACCTCG)” and “GGGGCACCATGGACCGGTTTTCCCGGTAATCCGTATTTGCG (site GGGGCACCTGG)” are within 0.2 log units of each other in “recombinant UMI read abundance (log10)” value: 0.0566 for the first, 0 for the second.

“GGGGCACCATGGACCGGTTTTCCCGGTAATCCGTATTTGCG (site GGGGCACCTTG)” and “GGGGCACCATGGACCGGTTTTCCCGGTAATCCGTATTTGCT (site GGGGCACCTAG)” are the same in “recombinant UMI read abundance (log10)” value: 0 for the first, 0 for the second.

“GGGGCACCATGGACCGGTTTTCCCGGTAATCCGTATTTGCT (site GGGGCACCTCG)” and “GGGGCACCATGGACCGGTTTTCCCGGTAATCCGTATTTGCT (site GGGGCACCTGG)” are within 0.2 log units of each other in “recombinant UMI read abundance (log10)” value: 0.0126 for the first, 0 for the second.

“GGGGCACCATGGACCGGTTTTCCCGGTAATCCGTATTTGCT (site GGGGCACCTTG)” and “GGGGCACCATGGACCGGTTTTCCCGGTAATCCGTATTTGGA (site GGGGCACCTTA)” are the same in “recombinant UMI read abundance (log10)” value: 0 for the first, 0 for the second.

“GGGGCACCATGGACCGGTTTTCCCGGTAATCCGTATTTGGA (site GGGGCACCTTC)” and “GGGGCACCATGGACCGGTTTTCCCGGTAATCCGTATTTGGA (site GGGGCACCTTG)” are within 0.2 log units of each other in “recombinant UMI read abundance (log10)” value: 0.0209 for the first, 0 for the second.

“GGGGCACCATGGACCGGTTTTCCCGGTAATCCGTATTTGGA (site GGGGCACCTTT)” and “GGGGCATCATGGACCGGTTTTCCCGGTAATCCGTATTTGCA (site GGGGCAACTTG)” are within 0.2 log units of each other in “recombinant UMI read abundance (log10)” value: 0.0158 for the first, 0 for the second.

“GGGGCATCATGGACCGGTTTTCCCGGTAATCCGTATTTGCA (site GGGGCACCTTG)” and “GGGGCATCATGGACCGGTTTTCCCGGTAATCCGTATTTGCA (site GGGGCAGCTTG)” are the same in “recombinant UMI read abundance (log10)” value: 0 for the first, 0 for the second.

First: GGGGCATCATGGACCGGTTTTCCCGGTAATCCGTATTTGCA (site GGGGCATCTTG)
Second: GGGGTTCCATGGACCGGTTTTCCCGGTAATCCGTATTTGAA (site GGGGTTCCTTT)
The “recombinant UMI read abundance (log10)” value of the first is higher: 2.13 for the first, 0 for the second.

Compared with “GGGTACTCATGGACCGGTTTTCCCGGTAATCCGTATTTGCT (site GGGTACTCTAG)”, “GGGTTCCCATGGACCGGTTTTCCCGGTAATCCGTATTTGTG (site AGGTTCCCTCA)” is lower in “recombinant UMI read abundance (log10)” value: 3.34 for the first, 0.00854 for the second.

“GGGTTCCCATGGACCGGTTTTCCCGGTAATCCGTATTTGTG (site CGGTTCCCTCA)” and “GGGTTCCCATGGACCGGTTTTCCCGGTAATCCGTATTTGTG (site GGGTTCCCTCA)” are within 0.2 log units of each other in “recombinant UMI read abundance (log10)” value: 0.0144 for the first, 0.00899 for the second.

“GGGTTCCCATGGACCGGTTTTCCCGGTAATCCGTATTTGTG (site TGGTTCCCTCA)” and “GGTAAACCATGGACCGGTTTTCCCGGTAATCCGTATTTGAT (site GGTAAACCTAT)” are within 0.2 log units of each other in “recombinant UMI read abundance (log10)” value: 0.0194 for the first, 0 for the second.

“GGTAAGCCATGGACCGGTTTTCCCGGTAATCCGTATTTGGG (site GGTAAGCCTCC)” and “GGTACAACATGGACCGGTTTTCCCGGTAATCCGTATTTGTA (site GGTACAACTTA)” are within 0.2 log units of each other in “recombinant UMI read abundance (log10)” value: 0.023 for the first, 0.0152 for the second.

“GGTACAACATGGACCGGTTTTCCCGGTAATCCGTATTTGTA (site GGTCCAACTTA)” and “GGTACAACATGGACCGGTTTTCCCGGTAATCCGTATTTGTA (site GGTGCAACTTA)” are within 0.2 log units of each other in “recombinant UMI read abundance (log10)” value: 0.00335 for the first, 0.0119 for the second.

“GGTACAACATGGACCGGTTTTCCCGGTAATCCGTATTTGTA (site GGTTCAACTTA)” and “GGTACGCCATGGACCGGTTTTCCCGGTAATCCGTATTTGTT (site GGTACGACTAA)” are within 0.2 log units of each other in “recombinant UMI read abundance (log10)” value: 0.0127 for the first, 0.0526 for the second.

“GGTACGCCATGGACCGGTTTTCCCGGTAATCCGTATTTGTT (site GGTACGCCTAA)” and “GGTACGCCATGGACCGGTTTTCCCGGTAATCCGTATTTGTT (site GGTACGGCTAA)” are within 0.2 log units of each other in “recombinant UMI read abundance (log10)” value: 0.0149 for the first, 0.0123 for the second.

Compared with “GGTACGCCATGGACCGGTTTTCCCGGTAATCCGTATTTGTT (site GGTACGTCTAA)”, “GGTACGTCATGGACCGGTTTTCCCGGTAATCCGTATTTGAT (site GGTACGTCTAA)” is lower in “recombinant UMI read abundance (log10)” value: 0.426 for the first, 0.0132 for the second.

“GGTACGTCATGGACCGGTTTTCCCGGTAATCCGTATTTGAT (site GGTACGTCTAC)” and “GGTACGTCATGGACCGGTTTTCCCGGTAATCCGTATTTGAT (site GGTACGTCTAG)” are within 0.2 log units of each other in “recombinant UMI read abundance (log10)” value: 0.00659 for the first, 0 for the second.

Going from “GGTACGTCATGGACCGGTTTTCCCGGTAATCCGTATTTGAT (site GGTACGTCTAT)” to “GGTACGTCATGGACCGGTTTTCCCGGTAATCCGTATTTGTA (site GGTACGTCTAA)”, the “recombinant UMI read abundance (log10)” value falls from 0.46 to 0.0713.

“GGTACGTCATGGACCGGTTTTCCCGGTAATCCGTATTTGTA (site GGTACGTCTCA)” and “GGTACGTCATGGACCGGTTTTCCCGGTAATCCGTATTTGTA (site GGTACGTCTGA)” are within 0.2 log units of each other in “recombinant UMI read abundance (log10)” value: 0.00737 for the first, 0 for the second.
